Reference: article PMC8510274, “Plasma-Induced Oxidation Products of (–)-Epigallocatechin Gallate with Digestive Enzymes Inhibitory Effects” (Molecules, 2021)
Where two headings read alike, the source gives them in different places.

Assays:
[1] = target: T1, α-glucosidase (EC 3.2.1.20) from Saccharomyces cerevisiae (Saccharomyces cerevisiae, UniProt P53341); assay: biochemical
T1 construct: purchased Sigma-Aldrich
Experimental: (§1) The specific optical rotation was obtained using a JASCO P-2000 polarimeter (JASCO, Tokyo, Japan), and fast atom bombardment mass spectrometry (FABMS) was recorded on a JMS-700 spectrometer (JEOL, Tokyo, Japan) in negative mode.
The α-glucosidase inhibitory activities of the compounds were evaluated using a minor modification of a previously reported method. The reaction mixture consisted of an enzyme solution (0.5 unit of α-glucosidase, 90 μL), a substrate (1 mM p-NPG, 100 μL) in a 0.1 M phosphate buffer (pH 7.0), and the isolated compounds, and positive control in 5% DMSO (10 μL). After incubation at 37 °C for 30 min, 0.1 M NaOH was added to quench the reaction.
(§2) The α-amylase inhibition assay was performed using a previously reported method with slight modifications. Porcine pancreatic α-amylase (1 unit, 90 µL) was incubated with the sample, and the positive control, at various concentrations. The reaction was started by adding 100 µL of a 1% potato starch solution, in 20 mM phosphate buffer (pH 6.9), to the reaction mixture. […] The mixture was then boiled at 80 °C for 10 min in a water bath and then cooled on ice. The α-amylase inhibitory activity was measured at 540 nm using an ELISA reader. Enzyme inhibition (%) = [1−(A1/A0)] × 100(1) where A0 and A1 are the absorbance of the control and sample, respectively. The α-glucosidase and α-amylase inhibition (%) was calculated, and the half-maximal inhibitory concentration (IC50) was determined by linear regression analysis of the inhibitory activities under the assay conditions.

[2] = target: T2, Porcine pancreatic α-amylase (Sus scrofa, UniProt P00690); assay: α-amylase inhibition assay (potato starch, DNS reagent); type: biochemical
T2 construct: purchased Sigma-Aldrich; host or cells: porcine pancreas
T2 sequence (P00690 16-511): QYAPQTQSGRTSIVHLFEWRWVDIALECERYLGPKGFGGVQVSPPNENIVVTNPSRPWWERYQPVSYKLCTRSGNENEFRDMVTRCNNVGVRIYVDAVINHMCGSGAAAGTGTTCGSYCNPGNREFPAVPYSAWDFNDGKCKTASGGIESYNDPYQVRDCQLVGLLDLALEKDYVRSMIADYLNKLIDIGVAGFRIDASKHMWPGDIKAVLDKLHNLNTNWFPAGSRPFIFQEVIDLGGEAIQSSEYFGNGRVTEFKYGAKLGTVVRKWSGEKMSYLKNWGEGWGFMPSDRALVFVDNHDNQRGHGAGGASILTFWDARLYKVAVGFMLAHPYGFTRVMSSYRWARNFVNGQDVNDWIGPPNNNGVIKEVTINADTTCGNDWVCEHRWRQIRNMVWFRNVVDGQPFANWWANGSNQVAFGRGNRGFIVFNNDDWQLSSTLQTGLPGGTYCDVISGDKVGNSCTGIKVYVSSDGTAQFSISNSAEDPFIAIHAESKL
Experimental: as §1, §2

[3] = isolated compounds, triplicate, acarbose positive control, read-out: IC50 Value α-Amylase (converted)
[4] = IC50 Value α-Glucosidase, isolated compounds, triplicate, acarbose positive control

T1 sequence (P53341 whole entry): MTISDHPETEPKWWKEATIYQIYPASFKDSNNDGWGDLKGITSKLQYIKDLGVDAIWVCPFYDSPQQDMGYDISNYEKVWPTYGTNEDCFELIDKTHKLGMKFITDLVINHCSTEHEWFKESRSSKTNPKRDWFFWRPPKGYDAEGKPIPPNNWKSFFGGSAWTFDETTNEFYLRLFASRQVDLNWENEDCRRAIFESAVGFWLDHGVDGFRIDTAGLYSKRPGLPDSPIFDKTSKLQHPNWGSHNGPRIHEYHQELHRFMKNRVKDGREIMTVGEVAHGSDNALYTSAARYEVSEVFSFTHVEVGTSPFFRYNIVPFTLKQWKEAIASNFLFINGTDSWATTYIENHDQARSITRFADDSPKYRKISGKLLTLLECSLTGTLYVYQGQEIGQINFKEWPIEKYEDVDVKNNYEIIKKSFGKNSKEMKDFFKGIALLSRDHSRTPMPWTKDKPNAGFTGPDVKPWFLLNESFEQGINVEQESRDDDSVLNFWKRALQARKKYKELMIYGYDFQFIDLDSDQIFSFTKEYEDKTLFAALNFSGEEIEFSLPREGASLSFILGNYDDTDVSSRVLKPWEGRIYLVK

| Compound | IC50 ([1]; read-out: IC50 Value α-Glucosidase) | IC50 [2, 3] | IC50 [1, 4] | IC50 [2] | IC50 ([1]; IC50 Value α-Glucosidase, plasma irradiation time 0 min (control, parent EGCG)) | IC50 ([2]; plasma irradiation time 0 min (control, parent EGCG), read-out: IC50 Value α-Amylase (converted)) |
| --- | --- | --- | --- | --- | --- | --- |
| O=C(O[C@@H]1Cc2c(O)cc(O)cc2O[C@@H]1C1=CC(=O)C2(O)C3C([C@H]4Oc5cc(O)cc(O)c5C[C@H]4OC(=O)c4cc(O)c(O)c(O)c4)=CC(=O)C4(O)C1C2(O)OC34O)c1cc(O)c(O)c(O)c1 (stereo partly shown) [Compound 1, EGCG quinone dimer A] | 15.9 ± 0.3 µM | 18.7 ± 0.3 µM |  |  |  |  |
| O=C(O[C@@H]1Cc2c(O)cc(O)cc2O[C@@H]1C1=CC(=O)[C@]2(O)C(=O)c3c(cc(O)c(O)c3O)[C@H]12)c1cc(O)c(O)c(O)c1 [Compound 2, theacitrinin A] |  |  | 20.7 ± 0.5 µM | 25.3 ± 0.6 µM |  |  |
| O=C(O)c1cc(O)c(O)c(O)c1 [Compound 3, gallic acid] |  |  | > 300 µM | > 300 µM |  |  |
| O=C(O[C@@H]1Cc2c(O)cc(O)cc2O[C@@H]1c1cc(O)c(O)c(O)c1)c1cc(O)c(O)c(O)c1 [EGCG, (−)-Epigallocatechin gallate, reference compound] |  | 75.5 ± 1.3 µM | 97.2 ± 1.2 µM |  | 97.1 µM | 75.3 µM |
